In US6770645B2, “Pharmaceutically active compounds” (Pfizer Inc., priority 2001, dated 2004):
pIC50: −log10 of the molar value. Structures can show the parent of a compound that is named as a salt. Where two headings read alike, the source gives them in different places.

Tests used:
[1] = target: T1, cGMP PDE5 (Homo sapiens, UniProt O76074); assay: In vitro cGMP PDE5 inhibitory activity (IC50); assay type: biochemical
T1 construct: The required PDE enzymes were isolated from a variety of sources, including human corpus cavernosum, human platelets; from tissue; host or cells: human corpus cavernosum tissue or human platelets
Procedure: The compounds of the present invention are potent and selective cGMP PDE5 inhibitors. In vitro PDE inhibitory activities against cyclic guanosine 3′,5′-monophosphate (cGMP) and cyclic adenosine 3′,5′-monophosphate (cAMP) phosphodiesterases were determined by measurement of their IC50 values (the concentration of compound required for 50% inhibition of enzyme activity).
The required PDE enzymes were isolated from a variety of sources, including human corpus cavernosum, human platelets, human cardiac ventricle, human skeletal muscle and human and canine retina, essentially by the method of W. J. Thompson and M. M. Appleman (Biochem., 1971, 10, 311). In particular, the cGMP-specific PDE (PDE5) and the cGMP-inhibited cAMP PDE (PDE3) were obtained from human corpus cavernosum tissue or human platelets; the cGMP-stimulated PDE (PDE2) was obtained from human corpus cavernosum or human platelets; the calcium/calmodulin (Ca/CAM)-dependent PDE (PDE1) from human cardiac ventricle; the cAMP-specific PDE (PDE4) from recombinant clone or human skeletal muscle; and the photoreceptor PDE (PDE6) from canine or human retina. Phosphodiesterases 7-11 were generated from full length human recombinant clones transfected into SF9 cells.
Assays were performed either using a modification of the “batch” method of W. J. Thompson et al. (Biochem., 1979, 18, 5228) or using a scintillation proximity assay for the direct detection of AMP/GMP using a modification of the protocol described by Amersham pic under product code TRKQ7090/7100. In summary, the effect of PDE inhibitors was investigated by assaying a fixed amount of enzyme in the presence of varying inhibitor concentrations and low substrate, (cGMP or cAMP in a 3:1 ratio unlabelled to [^3H]-labeled at a conc ˜½ Km) such that IC50 ≅Ki. The final assay volume was made up to 102 μl with assay buffer [20 mM Tris-HCl pH 7.4, 5 mM MgCl2, 1 mg/ml bovine serum albumin]. Reactions were initiated with enzyme, incubated for 30-60 min at 30° C. to give <30% substrate turnover and terminated with 50 μl yttrium silicate SPA beads (containing 3 mM of the respective unlabelled cyclic nucleotide for PDEs 3, 9 and 11). Plates were resealed and shaken for 20 min, after which the beads were allowed to settle for 30 min in the dark and then counted on a TopCount plate reader (Packard, Meriden, Conn.). Radioactivity units were converted to % activity of an uninhibited control (100%), plotted against inhibitor concentration and inhibitor IC50 values obtained using the ‘Fit Curve’ Microsoft Excel extension or inhouse equivalent.

[2] = bounds for groups of Examples, read-out: IC50 values for the PDE5 enzyme
[3] = in vitro cGMP PDE5 inhibitory activity, Table 1, read-out: IC50

SMILES | melting point [°C] | pIC50 [1, 2] | pIC50 [1, 3]
CCCCOc1ccc(S(C)(=O)=O)cc1-c1nc2c(CC)nn(Cc3ccccn3)c2c(=O)[nH]1 (as salt: potassium) [Example 5, 5-[2-Butoxy-5-(methylsulfonyl)phenyl]-3-ethyl-1-(2-pyridinylmethyl)-1,6-dihydro-7H-pyrazolo[4,3-d]pyrimidin-7-one] | 189 to 191 | – | –
CCCOc1ccc(S(C)(=O)=O)cc1-c1nc2c(CC)nn(Cc3ccccn3)c2c(=O)[nH]1 (as salt: potassium) [Example 11, 3-Ethyl-5-[5-(methylsulfonyl)-2-propoxyphenyl]-1-(2-pyridinylmethyl)-1,6-dihydro-7H-pyrazolo[4,3-d]pyrimidin-7-one] | 209 to 211 | – | –
CCc1nn(Cc2ccccn2)c2c(=O)[nH]c(-c3cc(S(C)(=O)=O)ccc3OCC(C)C)nc12 [Example 3, 3-Ethyl-5-[2-isobutoxy-5-(methylsulfonyl)phenyl]-1-(2-pyridinylmethyl)-1,6-dihydro-7H-pyrazolo[4,3-d]pyrimidin-7-one] | 223 to 225 | > 8.00 | 8.82
CCc1nn(Cc2ccccn2)c2c(=O)[nH]c(-c3cc(S(C)(=O)=O)ccc3OCCOC)nc12 [Example 4, 3-Ethyl-5-[2-(2-methoxyethoxy)-5-(methylsulfonyl)phenyl]-1-(2-pyridinylmethyl)-1,6-dihydro-7H-pyrazolo[4,3-d]pyrimidin-7-one] | 166 to 167 | – | –
CCCCOc1ccc(S(C)(=O)=O)cc1-c1nc2c(CC)nn(Cc3ccccn3)c2c(=O)[nH]1 [Example 5, 5-[2-Butoxy-5-(methylsulfonyl)phenyl]-3-ethyl-1-(2-pyridinylmethyl)-1,6-dihydro-7H-pyrazolo[4,3-d]pyrimidin-7-one] | – | > 8.00 | 8.46
CCc1n[nH]c2c(=O)[nH]c(-c3cc(S(C)(=O)=O)ccc3OCc3ccccn3)nc12 [Example 6, 3-Ethyl-5-[5-(methylsulfonyl)-2-(2-pyridinylmethoxy)phenyl]-1,6-dihydro-7H-pyrazolo[4,3-d]pyrimidin-7-one] | 283 to 286 | – | –
CCc1nn(Cc2nccn2C)c2c(=O)[nH]c(-c3cc(S(C)(=O)=O)ccc3OCC(C)C)nc12 [Example 7, 3-Ethyl-5-[2-isobutoxy-5-(methylsulfonyl)phenyl]-1-[(1-methyl-1H-imidazol-2-yl)methyl]-1,6-dihydro-7H-pyrazolo[4,3-d]pyrimidin-7-one] | 253 to 254 | > 8.00 | 8.77
CCCCOc1ccc(S(C)(=O)=O)cc1-c1nc2c(CC)n(CCN3CCOCC3)nc2c(=O)[nH]1 [Example 8, 5-[2-Butoxy-5-(methylsulfonyl)phenyl]-3-ethyl-2-[2-(4-morpholinyl)ethyl]-2,6-dihydro-7H-pyrazolo[4,3-d]pyrimidin-7-one] | 235 to 238 | > 8.00 | 8.00
CCc1c2nc(-c3cc(S(C)(=O)=O)ccc3OCC(C)C)[nH]c(=O)c2nn1CCN1CCOCC1 [Example 10, 3-Ethyl-5-[2-isobutoxy-5-(methylsulfonyl)phenyl]-2-[2-(4-morpholinyl)ethyl]-2,6-dihydro-7H-pyrazolo[4,3-d]pyrimidin-7-one] | 268 to 273 | > 8.00 | 8.12
CCc1nn(C[C@@H]2CCCN2C)c2c(=O)[nH]c(-c3cc(S(C)(=O)=O)ccc3OCC(C)C)nc12 [Example 13, 3-Ethyl-5-[2-isobutoxy-5-(methylsulfonyl)phenyl]-1-{[(2S)-1-methylpyrrolidinyl]methyl}-1,6-dihydro-7H-pyrazolo[4,3-d]pyrimidin-7-one] | 190 to 194 | > 8.00 | 8.20
CCc1c2nc(-c3cc(S(C)(=O)=O)ccc3OCC(C)C)[nH]c(=O)c2nn1Cc1cccnn1 [Example 15, 3-Ethyl-5-[2-isobutoxy-5-(methylsulfonyl)phenyl]-2-(3-pyridazinylmethyl)-2,6-dihydro-7H-pyrazolo[4,3-d]pyrimidin-7-one] | 244 to 247 | > 8.00 | 8.14
CCc1nn(Cc2cccnn2)c2c(=O)[nH]c(-c3cc(S(C)(=O)=O)ccc3OCC(C)C)nc12 [Example 16, 3-Ethyl-5-[2-isobutoxy-5-(methylsulfonyl)phenyl]-1-(3-pyridazinylmethyl)-1,6-dihydro-7H-pyrazolo[4,3-d]pyrimidin-7-one] | 231 to 234 | > 8.00 | 8.01
CCc1c2nc(-c3cc(S(C)(=O)=O)ccc3OCC(C)C)[nH]c(=O)c2nn1Cc1ccccn1 [Example 17, 3-Ethyl-5-[2-isobutoxy-5-(methylsulfonyl)phenyl]-2-(2-pyridinylmethyl)-2,6-dihydro-7H-pyrazolo[4,3-d]pyrimidin-7-one] | 235 to 238 | > 8.00 | 8.32
CCc1nn(C2CN(C(C)C)C2)c2c(=O)[nH]c(-c3cc(S(C)(=O)=O)ccc3OCC(C)C)nc12 [Example 20] | 206 to 209 | – | 7.86
CCc1c2nc(-c3cc(S(C)(=O)=O)ccc3OCC(C)C)[nH]c(=O)c2nn1C1CCN(C)CC1 [Example 21, 3-Ethyl-5-[2-isobutoxy-5-(methylsulfonyl)phenyl]-2-(1-methyl-4-piperidinyl)-2,6-dihydro-7H-pyrazolo[4,3-d]pyrimidin-7-one] | 292 to 295 | – | 7.90
CCc1c2nc(-c3cc(S(C)(=O)=O)ccc3OCC(C)C)[nH]c(=O)c2nn1C1CCN(C(C)C)CC1 [Example 22, 3-Ethyl-5-[2-isobutoxy-5-(methylsulfonyl)phenyl]-2-(1-isopropyl-4-piperidinyl)-2,6-dihydro-7H-pyrazolo[4,3-d]pyrimidin-7-one] | 273 to 275 | – | 7.87
CCCOc1ncc(S(C)(=O)=O)cc1-c1nc2c(CC)nn(C[C@@H]3CCCN3C)c2c(=O)[nH]1 [Example 23, 3-Ethyl-1-{[(2S)-1-methylpyrrolidinyl]methyl}-5-[5-(methylsulfonyl)-2-propoxy-3-pyridinyl]-1,6-dihydro-7H-pyrazolo[4,3-d]pyrimidin-7-one] | 182 to 183 | – | –
CCCOc1ccc(S(C)(=O)=O)cc1-c1nc2c(CC)nn(CCN(C(C)C)C(C)C)c2c(=O)[nH]1 [Example 24, 1-[2-(Diisopropylamino)ethyl]-3-ethyl-5-[5-(methylsulfonyl)-2-propoxyphenyl]-1,6-dihydro-7H-pyrazolo[4,3-d]pyrimidin-7-one] | – | > 8.00 | 8.17
CCCOc1ccc(S(C)(=O)=O)cc1-c1nc2c(CC)n(CCN(C(C)C)C(C)C)nc2c(=O)[nH]1 [Example 25, 2-[2-(diisopropylamino)ethyl]-3-ethyl-5-[5-(methylsulfonyl)-2-propoxyphenyl]-2,6-dihydro-7H-pyrazolo[4,3-d]pyrimidin-7-one] | – | > 8.00 | 8.27
CCCOc1ccc(S(=O)(=O)CC)cc1-c1nc2c(CC)nn(C[C@@H]3CCCN3C)c2c(=O)[nH]1 [Example 26, 3-Ethyl-5-[5-(ethylsulfonyl)-2-propoxyphenyl]-1-{[(2S)-1-methylpyrrolidinyl]methyl}-1,6-dihydro-7H-pyrazolo[4,3-d]pyrimidin-7-one] | – | – | 7.74
CCCOc1ccc(S(C)(=O)=O)cc1-c1nc2c(CC)nn(C[C@@H]3CCCCN3C)c2c(=O)[nH]1 [Example 28, 3-Ethyl-1-{[(2S)-1-methylpiperidinyl]methyl}-5-[5-(methylsulfonyl)-2-propoxyphenyl]-1,6-dihydro-7H-pyrazolo[4,3-d]pyrimidin-7-one] | – | > 8.00 | 8.44
C=CCc1nc(CC)n2nc(-c3cc(S(C)(=O)=O)ccc3OCCCC)[nH]c(=O)c12 [Example 29] | 192 to 194 | > 8.00 | 8.17
